Experimental findings from ChEMBL document CHEMBL5608213, “Synthesis of furanotriterpenoids from betulin and evaluation of Tyrosyl-DNA phosphodiesterase 1 (Tdp1) inhibitory properties of new semi-synthetic triterpenoids” (Eur J Med Chem, 2024) are described below.

The structures appear in SMILES notation.

The nature of data set [1]: Cytotoxicity against HEK293 cells incubated for 72 hrs by MTT assay. It counts as toxicity, cell-based. The conditions noted are these: human. A general note: Formazan colour is commonly taken as a measure of viable cells.
The subject of another data set is MDA-MB-453. As to the kind of experiment: Cytotoxicity against human MDA-MB-453 cells incubated for 72 hrs by MTT assay. It counts as functional.
For another data set, the system named is PC-3. As to the kind of experiment: Cytotoxicity against human PC-3 cells incubated for 72 hrs by MTT assay. It counts as functional.
The next data set relates to HepG2. As to the kind of experiment: Cytotoxicity against human HepG2 cells incubated for 72 hrs by MTT assay. It is filed as functional.
In the next data set the test system is MCF7. Put plainly: Cytotoxicity against human MCF7 cells incubated for 72 hrs by MTT assay. It counts as functional.
The next data set deals with MDA-MB-231. Put plainly: Cytotoxicity against human MDA-MB-231 cells incubated for 72 hrs by MTT assay. It counts as functional.
For another data set, the system named is A549. As to the kind of experiment: Cytotoxicity against human A549 cells incubated for 72 hrs by MTT assay. It counts as functional.
The nature of data set [2]: Cytotoxicity against human MCF-10A cells incubated for 72 hrs by MTT assay. It is filed as toxicity, cell-based.
Data set [3] is described as follows: Cytotoxicity against human HeLa-V cells assessed as reduction in cell viability incubated for 72 hrs in presence of 0.5 uM topotecan by MTT assay. It is filed as functional.
Data set [4] has as its target Tyrosyl-DNA phosphodiesterase 1 (Homo sapiens, UniProt Q9NUW8). Put plainly: Inhibition of Tdp1 (unknown origin) using 5'-[FAM]AACGTCAGGGTCTTCC[BHQ1]-3' as substrate measured every 55 sec by fluorescence based analysis.
Data set [5] in a line: Cytotoxicity against human HeLa-V cells incubated for 72 hrs by MTT assay. It is filed as functional.
Another data set relates to RD. As to the kind of experiment: Cytotoxicity against human RD cells incubated for 72 hrs by MTT assay. It is filed as functional.
A further data set relates to HCT-116. Put plainly: Cytotoxicity against human HCT-116 cells incubated for 72 hrs by MTT assay. It counts as functional.
The nature of data set [6]: Cytotoxicity against human Mel-MS cells incubated for 72 hrs by MTT assay. It is filed as functional.
Data set [7] can be described thus: Cytotoxicity against human HeLa-V cells assessed as cell viability at <=12.5 uM incubated for 72 hrs in presence of 0.5 uM topotecan by MTT assay relative to control. To be noted: up to 12.5 µM. It counts as functional.
Data set [8] can be described thus: Sensitization of topotecan-induced cytotoxicity against human HeLa-V cells assessed as reduction in cell viability by measuring fold change in topotecan CC50 at 10 uM incubated for 72 hrs by MTT assay relative to topotecan alone. It counts as functional.

Chain of Tyrosyl-DNA phosphodiesterase 1 (Q9NUW8 whole entry): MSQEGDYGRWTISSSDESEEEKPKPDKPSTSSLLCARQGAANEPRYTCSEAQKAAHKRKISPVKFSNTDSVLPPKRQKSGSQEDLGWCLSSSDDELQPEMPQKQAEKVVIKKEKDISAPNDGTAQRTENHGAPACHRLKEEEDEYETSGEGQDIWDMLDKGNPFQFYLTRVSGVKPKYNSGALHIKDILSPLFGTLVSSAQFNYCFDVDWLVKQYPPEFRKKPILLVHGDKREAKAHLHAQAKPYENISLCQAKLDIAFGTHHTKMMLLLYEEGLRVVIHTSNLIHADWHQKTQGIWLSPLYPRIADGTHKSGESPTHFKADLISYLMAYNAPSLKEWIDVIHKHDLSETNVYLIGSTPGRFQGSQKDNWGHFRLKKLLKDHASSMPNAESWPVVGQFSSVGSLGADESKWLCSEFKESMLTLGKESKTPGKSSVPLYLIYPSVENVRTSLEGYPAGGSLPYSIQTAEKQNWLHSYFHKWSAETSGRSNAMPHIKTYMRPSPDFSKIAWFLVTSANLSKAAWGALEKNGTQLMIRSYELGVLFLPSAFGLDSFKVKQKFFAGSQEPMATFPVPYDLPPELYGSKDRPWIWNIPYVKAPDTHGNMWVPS

For orientation: CC50 means the concentration at which the toxic effect on the cells reaches its halfway point. The term IC50 denotes the concentration that inhibits the measured activity by half. `CC(C)[C@@H]1CC[C@]2(COC(=O)c3ccccc3)CC[C@]3(C)[C@H](CC[C@@H]4[C@@]5(C)/C(=N/O)[C@H]6O[C@H]6C(C)(C)[C@@H]5CC[C@]43C)[C@@H]12`: the CC50 at 72 h in [1] and in data set [2] was more than 100 µM each time. For the same compound, the cytotoxic concentration (CC50) in the data set with MDA-MB-453 was more than 100 µM; with PC-3, 62.2 µM; in the data set with HepG2, more than 100 µM; in the data set with MCF7, more than 100 µM; in the data set on MDA-MB-231 it was more than 100 µM; with A549 it was more than 100 µM. Moreover, the CC50 in [3] was 13.1 µM; in data set [5], 28 µM; in the data set on RD, more than 100 µM; with HCT-116, more than 100 µM; in data set [6] it was more than 100 µM. In data set [4], this compound displayed a half-maximal inhibitory concentration (IC50) of 2 µM.

Take `CC(C)[C@@H]1CC[C@]2(CO)CC[C@]3(C)[C@H](CC[C@@H]4[C@@]5(C)O[C@H](CC#N)C(C)(C)[C@@H]5CC[C@]43C)[C@@H]12`: the CC50 at 72 h in data set [1] and in data set [2] was more than 100 µM throughout. Further, the CC50 in the data set with MDA-MB-453 is more than 100 µM; in the data set on PC-3, more than 100 µM; with HepG2 it was more than 200 µM; in the data set on MCF7 it was 39.2 µM; with MDA-MB-231 it was more than 100 µM; in the data set on A549 it was 89.9 µM. The CC50 in data set [3] is 14.8 µM; in data set [5] it was 31.6 µM; in the data set with RD, 79 µM; in the data set with HCT-116, more than 100 µM; in data set [6], more than 100 µM. The Activity in [7] was approximately 80%. In data set [4], this compound registered an IC50 of 1 µM.

With `C=C1[C@H](C(C)(C)[C@@H](O)CC#N)CC[C@]2(C)[C@@H]1CC[C@@H]1[C@H]3[C@H](C(C)C)CC[C@]3(COC(=O)c3ccccc3)CC[C@]12C`, the CC50 at 72 h in data set [1] and in [2] was more than 100 µM throughout. Also, the CC50 in the data set on MDA-MB-453, in the data set with PC-3, in the data set on HepG2, in the data set with MCF7, in the data set on MDA-MB-231 and with A549 was more than 100 µM each time. The CC50 in data set [3] is not above 35.1 µM; in data set [5], more than 100 µM; with RD it was more than 100 µM; in the data set with HCT-116, more than 100 µM; in data set [6], more than 100 µM. In addition, in data set [7], the Activity is on record as approximately 80%. In addition, in data set [4], the midpoint of inhibition, the IC50, lay at 1.97 µM. Further, in [8], the “fold change (FC)” value was less than 1.5.

For `CC(C)[C@@H]1CC[C@]2(COC(=O)c3ccccc3)CC[C@]3(C)[C@H](CC[C@@H]4[C@@]5(C)OC(CC#N)C(C)(C)[C@@H]5CC[C@]43C)[C@@H]12` (mixture of isomers), the CC50 at 72 h in [1] and in [2] was more than 100 µM each time. The CC50 in the data set on MDA-MB-453 is more than 100 µM; in the data set with PC-3, more than 100 µM; in the data set on HepG2 it was more than 100 µM; in the data set on MCF7, more than 100 µM; in the data set on MDA-MB-231 it was more than 100 µM; in the data set with A549, 58.6 µM. Also, the CC50 (in data set [5]; in the data set on RD; in the data set with HCT-116; in [6]) was more than 100 µM throughout. The same compound registered a half-maximal inhibitory concentration (IC50) in [4] of 7 µM.
